{"source": "ChEMBL document CHEMBL4011618", "about": "“Discovery of Potent, Selective Stem Cell Factor Receptor/Platelet Derived Growth Factor Receptor Alpha (c-KIT/PDGFRα) Dual Inhibitor for the Treatment of Imatinib-Resistant Gastrointestinal Stromal Tumors (GISTs)” (J Med Chem, 2017)", "key": {"[1]": {"assay": "Half life in Sprague-Dawley rat at 2 mg/kg, iv up to 24 hrs post dose by LC/MS/MS analysis", "format": "ADME, organism-based", "details": "in vivo"}, "K562": {"tested_on": "K562", "assay": "Antiproliferative activity against human K562 cells assessed as cell growth inhibition after 72 hrs by cell titer-glo assay", "format": "functional", "details": "K562, 72 h"}, "[2]": {"assay": "Cmax in Sprague-Dawley rat at 2 mg/kg, iv up to 24 hrs post dose by LC/MS/MS analysis", "format": "ADME, organism-based", "set-up": "dose 2 mg/kg, route intravenous", "details": "in vivo"}, "[3]": {"assay": "Cmax in Sprague-Dawley rat at 25 mg/kg, ip up to 24 hrs post dose by LC/MS/MS analysis", "format": "ADME, organism-based", "set-up": "dose 25 mg/kg, route intraperitoneal", "details": "in vivo"}, "[4]": {"assay": "MRT (0 to t) in Sprague-Dawley rat at 25 mg/kg, ip up to 24 hrs post dose by LC/MS/MS analysis", "format": "ADME, organism-based", "details": "in vivo"}, "Mus musculus [5]": {"tested_on": "Mus musculus", "assay": "Toxicity in nu/nu mouse xenografted with human GISTT1 cells assessed as mortality at 25 to 100 mg/kg, ip administered daily for 28 days measured during compound dosing", "format": "organism-based", "details": "in vivo, 672 h"}, "[6]": {"assay": "Tmax in Sprague-Dawley rat at 2 mg/kg, iv up to 24 hrs post dose by LC/MS/MS analysis", "format": "ADME, organism-based", "details": "in vivo"}, "[7]": {"biological_target": "Macrophage colony-stimulating factor 1 receptor (Homo sapiens, UniProt P07333)", "sequence (P07333 whole entry)": "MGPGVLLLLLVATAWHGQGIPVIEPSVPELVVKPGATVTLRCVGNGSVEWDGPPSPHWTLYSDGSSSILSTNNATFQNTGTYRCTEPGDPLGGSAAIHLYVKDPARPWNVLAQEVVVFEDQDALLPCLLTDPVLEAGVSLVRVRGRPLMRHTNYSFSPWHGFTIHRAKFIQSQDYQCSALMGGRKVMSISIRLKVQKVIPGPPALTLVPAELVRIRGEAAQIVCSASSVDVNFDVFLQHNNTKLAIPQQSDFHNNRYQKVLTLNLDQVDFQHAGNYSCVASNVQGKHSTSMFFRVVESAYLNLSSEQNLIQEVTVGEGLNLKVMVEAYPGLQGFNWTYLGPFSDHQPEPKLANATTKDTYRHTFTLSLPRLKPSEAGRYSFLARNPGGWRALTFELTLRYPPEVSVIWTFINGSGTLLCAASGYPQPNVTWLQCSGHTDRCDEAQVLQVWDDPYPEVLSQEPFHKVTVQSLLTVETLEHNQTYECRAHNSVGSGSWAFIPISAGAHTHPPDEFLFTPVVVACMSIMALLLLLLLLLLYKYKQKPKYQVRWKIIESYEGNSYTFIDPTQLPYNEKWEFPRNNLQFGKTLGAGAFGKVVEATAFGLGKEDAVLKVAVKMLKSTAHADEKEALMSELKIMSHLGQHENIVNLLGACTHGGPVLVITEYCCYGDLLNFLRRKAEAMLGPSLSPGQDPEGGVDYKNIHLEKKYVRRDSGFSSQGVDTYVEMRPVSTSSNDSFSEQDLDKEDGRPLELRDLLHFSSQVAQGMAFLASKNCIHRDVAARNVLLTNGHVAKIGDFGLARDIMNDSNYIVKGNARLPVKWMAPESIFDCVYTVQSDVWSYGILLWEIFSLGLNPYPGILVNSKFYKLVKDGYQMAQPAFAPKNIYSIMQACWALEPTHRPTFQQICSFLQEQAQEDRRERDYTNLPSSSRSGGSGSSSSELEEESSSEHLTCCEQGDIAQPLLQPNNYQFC", "assay": "Inhibition of human full length His-tagged CSF1R expressed in baculovirus by Z'Lyte assay"}, "[8]": {"tested_on": "Mast/stem cell growth factor receptor Kit (Homo sapiens), P10721 [D816V]", "sequence (P10721 whole entry D816V)": "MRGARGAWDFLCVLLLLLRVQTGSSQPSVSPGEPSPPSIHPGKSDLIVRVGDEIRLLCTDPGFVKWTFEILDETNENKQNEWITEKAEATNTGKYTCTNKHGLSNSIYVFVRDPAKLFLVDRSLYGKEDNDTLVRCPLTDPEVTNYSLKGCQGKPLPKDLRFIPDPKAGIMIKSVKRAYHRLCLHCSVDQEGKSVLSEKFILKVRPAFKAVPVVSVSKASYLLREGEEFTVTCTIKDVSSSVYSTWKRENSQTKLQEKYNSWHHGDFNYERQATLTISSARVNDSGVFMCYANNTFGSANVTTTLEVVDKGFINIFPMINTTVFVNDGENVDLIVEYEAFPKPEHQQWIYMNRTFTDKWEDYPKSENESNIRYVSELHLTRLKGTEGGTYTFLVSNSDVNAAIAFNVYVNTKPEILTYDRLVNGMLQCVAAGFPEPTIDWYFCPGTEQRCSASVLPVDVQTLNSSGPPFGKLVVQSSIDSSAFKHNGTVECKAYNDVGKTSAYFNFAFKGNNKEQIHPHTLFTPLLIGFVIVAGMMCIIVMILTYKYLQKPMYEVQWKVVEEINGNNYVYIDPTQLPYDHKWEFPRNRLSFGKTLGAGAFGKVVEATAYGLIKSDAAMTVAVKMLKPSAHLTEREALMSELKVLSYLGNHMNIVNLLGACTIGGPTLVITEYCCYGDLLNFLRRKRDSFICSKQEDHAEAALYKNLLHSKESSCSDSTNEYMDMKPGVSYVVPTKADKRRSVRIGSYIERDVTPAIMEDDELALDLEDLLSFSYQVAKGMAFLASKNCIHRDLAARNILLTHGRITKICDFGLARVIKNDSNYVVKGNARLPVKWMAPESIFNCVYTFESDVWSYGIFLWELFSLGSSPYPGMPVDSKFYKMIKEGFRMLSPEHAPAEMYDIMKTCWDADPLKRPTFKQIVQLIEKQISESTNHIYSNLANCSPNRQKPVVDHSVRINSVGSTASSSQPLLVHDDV", "description": "Inhibition of TEL-fused cKIT D816V mutant (unknown origin) expressed in mouse BAF3 cells assessed as cell growth inhibition after 72 hrs by cell titer-glo assay"}, "[9]": {"assay": "Antiproliferative activity against CHL cells assessed as cell growth inhibition after 72 hrs by cell titer-glo assay", "format": "cell-based, Cricetulus griseus", "details": "chinese hamster"}, "[10]": {"tested_on": "Mast/stem cell growth factor receptor Kit (Homo sapiens), P10721 [L576P]", "sequence (P10721 whole entry L576P)": "as the sequence (P10721 whole entry D816V) above, with L576P, V816D counted along it", "description": "Inhibition of TEL-fused cKIT L576P mutant (unknown origin) expressed in mouse BAF3 cells assessed as cell growth inhibition after 72 hrs by cell titer-glo assay"}, "[11]": {"assay": "AUC (0 to infinity) in Sprague-Dawley rat at 25 mg/kg, ip up to 24 hrs post dose by LC/MS/MS analysis", "format": "ADME, organism-based", "set-up": "dose 25 mg/kg, time infinity, route intraperitoneal", "details": "in vivo"}, "[12]": {"biological_target": "Voltage-gated inwardly rectifying potassium channel KCNH2 (Homo sapiens, UniProt Q12809)", "assay": "Inhibition of human ERG expressed in CHO cells by whole cell patch clamp assay", "format": "cell-based"}, "[13]": {"assay": "MRT (0 to infinity) in Sprague-Dawley rat at 25 mg/kg, ip up to 24 hrs post dose by LC/MS/MS analysis", "format": "ADME, organism-based", "details": "in vivo"}, "BaF3 [14]": {"tested_on": "BaF3", "assay": "Antitumor activity against mouse BAF3 cells harboring TEL-cKIT-T670I mutant allografted in nu/nu mouse assessed as tumor growth inhibition at 25 mg/kg, ip administered daily for 11 days relative to control", "format": "functional", "details": "264 h, read-out: TGI"}, "[15]": {"tested_on": "Mast/stem cell growth factor receptor Kit (Homo sapiens), P10721 [D816H]", "sequence (P10721 whole entry D816H)": "as the sequence (P10721 whole entry D816V) above, with V816H counted along it", "description": "Inhibition of TEL-fused cKIT D816H mutant (unknown origin) expressed in mouse BAF3 cells assessed as cell growth inhibition after 72 hrs by cell titer-glo assay"}, "GISTT1 [16]": {"tested_on": "GISTT1", "assay": "Antitumor activity against human GISTT1 cells xenografted in nu/nu mouse assessed as tumor growth inhibition at 100 mg/kg, ip administered daily for 28 days relative to control", "format": "functional", "details": "672 h, read-out: TGI"}, "[17]": {"biological_target": "T1, Platelet-derived growth factor receptor alpha (Homo sapiens, UniProt P16234)", "T1 sequence (P16234 whole entry)": "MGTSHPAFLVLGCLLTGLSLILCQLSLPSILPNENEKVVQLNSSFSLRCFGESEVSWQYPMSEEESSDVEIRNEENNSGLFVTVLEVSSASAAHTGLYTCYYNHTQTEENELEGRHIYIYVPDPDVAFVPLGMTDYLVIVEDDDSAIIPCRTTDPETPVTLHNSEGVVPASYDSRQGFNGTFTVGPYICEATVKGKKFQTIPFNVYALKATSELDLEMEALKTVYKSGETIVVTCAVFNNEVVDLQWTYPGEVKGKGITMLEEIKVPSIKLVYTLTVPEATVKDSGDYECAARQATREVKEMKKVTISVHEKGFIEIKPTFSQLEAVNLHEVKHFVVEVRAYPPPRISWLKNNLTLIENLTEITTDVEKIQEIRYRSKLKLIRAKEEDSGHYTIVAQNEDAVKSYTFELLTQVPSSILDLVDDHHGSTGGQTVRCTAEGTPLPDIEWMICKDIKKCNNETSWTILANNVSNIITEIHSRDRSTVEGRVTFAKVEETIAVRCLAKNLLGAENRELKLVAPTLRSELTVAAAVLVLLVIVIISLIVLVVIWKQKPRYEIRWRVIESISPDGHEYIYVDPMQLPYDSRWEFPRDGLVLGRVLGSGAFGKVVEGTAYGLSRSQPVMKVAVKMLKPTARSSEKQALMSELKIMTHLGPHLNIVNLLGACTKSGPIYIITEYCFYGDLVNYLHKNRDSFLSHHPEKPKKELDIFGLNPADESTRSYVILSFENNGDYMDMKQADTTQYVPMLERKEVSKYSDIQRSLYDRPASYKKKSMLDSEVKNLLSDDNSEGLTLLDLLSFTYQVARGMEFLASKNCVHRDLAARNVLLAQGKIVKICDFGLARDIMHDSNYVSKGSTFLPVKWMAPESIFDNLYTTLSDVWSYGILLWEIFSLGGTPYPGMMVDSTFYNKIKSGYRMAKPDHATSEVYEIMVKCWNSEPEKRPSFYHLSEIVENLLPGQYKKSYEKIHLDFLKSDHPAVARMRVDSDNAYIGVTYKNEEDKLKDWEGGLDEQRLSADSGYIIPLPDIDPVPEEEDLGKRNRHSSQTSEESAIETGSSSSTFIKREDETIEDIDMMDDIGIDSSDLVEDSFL", "assay": "Inhibition of PDGFRalpha (unknown origin) using FAM-labeled peptide as substrate preincubated for 10 mins followed by substrate addition in presence of ATP by mobility shift assay"}, "[18]": {"biological_target": "T1, Platelet-derived growth factor receptor alpha", "description": "Inhibition of TEL-fused PDGFRalpha (unknown origin) expressed in mouse BAF3 cells assessed as cell growth inhibition after 72 hrs by cell titer-glo assay"}, "[19]": {"biological_target": "Mast/stem cell growth factor receptor Kit (Homo sapiens, UniProt P10721)", "sequence (P10721 whole entry)": "as the sequence (P10721 whole entry D816V) above, with V816D counted along it", "description": "Inhibition of TEL-fused cKIT (unknown origin) expressed in mouse BAF3 cells assessed as cell growth inhibition after 72 hrs by cell titer-glo assay"}, "[20]": {"tested_on": "Platelet-derived growth factor receptor alpha (Homo sapiens), P16234 [T674I]", "sequence (P16234 whole entry T674I)": "as the sequence (P16234 whole entry) above, with T674I counted along it", "description": "Inhibition of TEL-fused PDGFRalpha T674I mutant (unknown origin) expressed in mouse BAF3 cells assessed as cell growth inhibition after 72 hrs by cell titer-glo assay"}, "[21]": {"tested_on": "Mast/stem cell growth factor receptor Kit (Homo sapiens), P10721 [V559D,V654A]", "sequence (P10721 whole entry V559D/V654A)": "as the sequence (P10721 whole entry D816V) above, with V559D, V654A, V816D counted along it"}, "[22]": {"biological_target": "Receptor-type tyrosine-protein kinase FLT3 (Homo sapiens, UniProt P36888)", "assay": "Inhibition of human His-tagged FLT3 (564 to 958 residues) expressed in baculovirus by ELISA"}, "[23]": {"assay": "MRT (0 to t) in Sprague-Dawley rat at 100 mg/kg, ip up to 24 hrs post dose by LC/MS/MS analysis", "format": "ADME, organism-based", "details": "in vivo"}, "Mus musculus [24]": {"tested_on": "Mus musculus", "assay": "Toxicity in nu/nu mouse xenografted with human GISTT1 cells assessed as body weight loss at 25 to 100 mg/kg, ip administered daily for 28 days measured during compound dosing", "format": "organism-based", "details": "in vivo, 672 h"}, "GISTT1 [25]": {"tested_on": "GISTT1", "assay": "Antitumor activity against human GISTT1 cells xenografted in nu/nu mouse assessed as tumor growth inhibition at 25 mg/kg, ip administered daily for 28 days relative to control", "format": "functional", "details": "672 h, read-out: TGI"}, "MEG-01": {"tested_on": "MEG-01", "assay": "Antiproliferative activity against human MEG01 cells assessed as cell growth inhibition after 72 hrs by cell titer-glo assay", "format": "functional", "details": "MEG-01, 72 h"}, "BaF3 [26]": {"tested_on": "BaF3", "assay": "Antitumor activity against mouse BAF3 cells harboring TEL-cKIT-T670I mutant allografted in nu/nu mouse assessed as tumor growth inhibition at 100 mg/kg, ip administered daily for 11 days relative to control", "format": "functional", "details": "264 h, read-out: TGI"}, "Mus musculus [27]": {"tested_on": "Mus musculus", "assay": "Toxicity in nu/nu mouse allografted with mouse BAF3 cells harboring TEL-cKIT-T670I mutant assessed as change in body weight at 25 to 100 mg/kg, ip administered daily for 11 days relative to control", "format": "organism-based", "details": "in vivo, 264 h"}, "[28]": {"biological_target": "Proto-oncogene tyrosine-protein kinase receptor Ret (Homo sapiens, UniProt P07949)", "assay": "Inhibition of human GST-tagged RET (658 to 1114 residues) expressed in baculovirus by ELISA"}, "[29]": {"biological_target": "Vascular endothelial growth factor receptor 2 (Homo sapiens, UniProt P35968)", "sequence (P35968 whole entry)": "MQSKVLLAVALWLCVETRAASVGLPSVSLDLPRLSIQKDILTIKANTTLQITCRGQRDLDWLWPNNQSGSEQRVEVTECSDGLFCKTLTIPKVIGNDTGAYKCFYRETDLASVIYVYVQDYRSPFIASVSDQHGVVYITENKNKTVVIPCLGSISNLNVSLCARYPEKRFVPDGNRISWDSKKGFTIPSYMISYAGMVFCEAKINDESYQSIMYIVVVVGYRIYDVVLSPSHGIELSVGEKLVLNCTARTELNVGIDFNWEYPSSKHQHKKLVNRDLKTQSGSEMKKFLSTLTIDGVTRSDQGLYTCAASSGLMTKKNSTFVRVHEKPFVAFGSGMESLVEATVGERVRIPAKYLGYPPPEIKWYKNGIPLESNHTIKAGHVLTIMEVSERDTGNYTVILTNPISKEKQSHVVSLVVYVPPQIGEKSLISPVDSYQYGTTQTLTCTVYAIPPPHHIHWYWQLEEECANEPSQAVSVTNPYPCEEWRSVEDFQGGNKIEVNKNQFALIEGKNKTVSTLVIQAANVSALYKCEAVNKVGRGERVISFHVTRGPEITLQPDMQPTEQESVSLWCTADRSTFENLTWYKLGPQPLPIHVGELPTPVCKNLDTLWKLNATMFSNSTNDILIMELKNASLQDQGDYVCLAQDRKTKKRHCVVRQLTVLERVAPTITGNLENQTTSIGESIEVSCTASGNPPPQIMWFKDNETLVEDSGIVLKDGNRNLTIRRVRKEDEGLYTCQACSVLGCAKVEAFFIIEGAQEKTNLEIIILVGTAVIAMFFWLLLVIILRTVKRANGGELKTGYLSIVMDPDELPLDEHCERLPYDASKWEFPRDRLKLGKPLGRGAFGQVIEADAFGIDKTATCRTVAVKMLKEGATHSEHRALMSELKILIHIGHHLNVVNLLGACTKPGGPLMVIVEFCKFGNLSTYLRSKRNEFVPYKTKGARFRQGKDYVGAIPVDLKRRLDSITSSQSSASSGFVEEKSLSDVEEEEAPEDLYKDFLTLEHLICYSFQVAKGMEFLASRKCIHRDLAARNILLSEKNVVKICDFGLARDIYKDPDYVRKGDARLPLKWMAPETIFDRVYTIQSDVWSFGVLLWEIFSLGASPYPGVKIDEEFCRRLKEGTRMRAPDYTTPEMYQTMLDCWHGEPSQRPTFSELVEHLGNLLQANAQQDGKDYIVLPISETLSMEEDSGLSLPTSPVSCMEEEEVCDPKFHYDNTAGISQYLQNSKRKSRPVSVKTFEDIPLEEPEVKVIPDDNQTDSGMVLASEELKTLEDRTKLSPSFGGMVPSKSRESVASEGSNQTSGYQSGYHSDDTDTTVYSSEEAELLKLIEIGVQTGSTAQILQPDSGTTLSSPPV", "description": "Inhibition of VEGFR2 (unknown origin) using FAM-labeled peptide as substrate preincubated for 10 mins followed by substrate addition in presence of ATP by mobility shift assay"}, "KU812 cell line": {"tested_on": "KU812 cell line", "assay": "Antiproliferative activity against human KU812 cells assessed as cell growth inhibition after 72 hrs by cell titer-glo assay", "format": "functional", "details": "KU812, 72 h"}, "[30]": {"biological_target": "Vascular endothelial growth factor receptor 1 (Homo sapiens, UniProt P17948)", "assay": "Inhibition of human GST-tagged FLT1 (781 to 1338 residues) expressed in baculovirus by ELISA"}, "GIST882": {"tested_on": "GIST882", "assay": "Antiproliferative activity against human GIST882 cells assessed as cell growth inhibition after 72 hrs by cell titer-glo assay", "format": "functional", "details": "GIST882, 72 h"}, "[31]": {"tested_on": "Mast/stem cell growth factor receptor Kit (Homo sapiens), P10721 [V654A]", "sequence (P10721 whole entry V654A)": "as the sequence (P10721 whole entry D816V) above, with V654A, V816D counted along it", "description": "Inhibition of TEL-fused cKIT V654A mutant (unknown origin) expressed in mouse BAF3 cells assessed as cell growth inhibition after 72 hrs by cell titer-glo assay"}, "[32]": {"tested_on": "Mast/stem cell growth factor receptor Kit (Homo sapiens), P10721 [T670I]", "sequence (P10721 whole entry T670I)": "as the sequence (P10721 whole entry D816V) above, with T670I, V816D counted along it", "description": "Inhibition of TEL-fused cKIT T670I mutant (unknown origin) expressed in mouse BAF3 cells assessed as cell growth inhibition after 72 hrs by cell titer-glo assay"}, "[33]": {"biological_target": "Platelet-derived growth factor receptor beta (Homo sapiens, UniProt P09619)", "assay": "Inhibition of human His-tagged PDGFRbeta (558 to 1106 residues) expressed in baculovirus by ELISA"}, "[34]": {"assay": "Antiproliferative activity against CHO cells assessed as cell growth inhibition after 72 hrs by cell titer-glo assay", "format": "cell-based, Cricetulus griseus", "details": "chinese hamster"}, "[35]": {"assay": "Cmax in Sprague-Dawley rat at 100 mg/kg, ip up to 24 hrs post dose by LC/MS/MS analysis", "format": "ADME, organism-based", "set-up": "dose 100 mg/kg, route intraperitoneal", "details": "in vivo"}}}
{"molecule": "Cc1cc(NC(=O)Nc2ccc(-c3ccnc4[nH]nc(C)c34)cc2)ccc1N1CCOCC1", "values": [{"measurement": "half-life", "setting": "[1]", "result": 0.69, "unit": "h"}, {"measurement": "GI50", "setting": "K562", "result": "> 10000", "unit": "nM"}, {"measurement": "Cmax", "setting": "[2]", "result": 1890, "unit": "ng/mL"}, {"measurement": "Cmax", "setting": "[3]", "result": 117, "unit": "ng/mL"}, {"measurement": "MRT last at 24 h", "setting": "[4]", "result": 5.67, "unit": "h"}, {"measurement": "Activity", "setting": "Mus musculus [5]", "result": "Non-Toxic"}, {"measurement": "Tmax", "setting": "[6]", "result": 4.98, "unit": "min"}, {"measurement": "IC50", "setting": "[7]", "result": 160, "unit": "nM"}, {"measurement": "GI50", "setting": "[8]", "result": "> 10000", "unit": "nM"}, {"measurement": "GI50 at 72 h", "setting": "[9]", "result": 7040, "unit": "nM"}, {"measurement": "GI50", "setting": "[10]", "result": 10.6, "unit": "nM"}, {"measurement": "AUC(0-inf)", "setting": "[11]", "result": 713, "unit": "ng·h/mL"}, {"measurement": "IC50", "setting": "[12]", "result": "> 40000", "unit": "nM"}, {"measurement": "MRT inf", "setting": "[13]", "result": 6.48, "unit": "h"}, {"measurement": "inhibition in vivo at 25 mg/kg", "setting": "BaF3 [14]", "result": 16.8, "unit": "%"}, {"measurement": "GI50", "setting": "[15]", "result": 134, "unit": "nM"}, {"measurement": "inhibition in vivo at 100 mg/kg", "setting": "GISTT1 [16]", "result": 81.5, "unit": "%"}, {"measurement": "IC50", "setting": "[17]", "result": 7.2, "unit": "nM"}, {"measurement": "GI50", "setting": "[18]", "result": 10.4, "unit": "nM"}, {"measurement": "GI50", "setting": "[19]", "result": 18.1, "unit": "nM"}, {"measurement": "GI50", "setting": "[20]", "result": 135, "unit": "nM"}, {"measurement": "GI50", "setting": "[21]", "result": 330, "unit": "nM"}, {"measurement": "IC50", "setting": "[22]", "result": 2, "unit": "nM"}, {"measurement": "MRT last at 24 h", "setting": "[23]", "result": 7.99, "unit": "h"}, {"measurement": "Activity", "setting": "Mus musculus [24]", "result": "Non-Toxic"}, {"measurement": "inhibition in vivo at 25 mg/kg", "setting": "GISTT1 [25]", "result": 20.2, "unit": "%"}, {"measurement": "GI50", "setting": "MEG-01", "result": 9090, "unit": "nM"}, {"measurement": "inhibition in vivo at 100 mg/kg", "setting": "BaF3 [26]", "result": 41.9, "unit": "%"}, {"measurement": "Activity", "setting": "Mus musculus [27]", "result": "Non-Toxic"}, {"measurement": "IC50", "setting": "[28]", "result": "> 1000", "unit": "nM"}, {"measurement": "IC50", "setting": "[29]", "result": 2280, "unit": "nM"}, {"measurement": "GI50", "setting": "KU812 cell line", "result": "> 10000", "unit": "nM"}, {"measurement": "IC50", "setting": "[30]", "result": 159, "unit": "nM"}, {"measurement": "GI50", "setting": "GIST882", "result": "< 3", "unit": "nM"}, {"measurement": "GI50", "setting": "[31]", "result": 136, "unit": "nM"}, {"measurement": "GI50", "setting": "[32]", "result": 39.2, "unit": "nM"}, {"measurement": "IC50", "setting": "[33]", "result": "< 1", "unit": "nM"}, {"measurement": "GI50 at 72 h", "setting": "[34]", "result": "> 10000", "unit": "nM"}, {"measurement": "Cmax", "setting": "[35]", "result": 656, "unit": "ng/mL"}]}
